From article PMC10394516, “The pharmacokinetic profile of brensocatib and its effect on pharmacodynamic biomarkers including NE, PR3, and CatG in various rodent species” (Frontiers in Pharmacology, 2023)

Tests used:
CatG [1] = assay: Bone marrow CatG activity after repeated dosing, BALB/c mice; format: in vivo; details: for Reduction of CatG activity vs vehicle / Change From Vehicle Control (%) CatG: 7 days
Procedure: (§1) Briefly, animals were weighed and randomized into different treatment groups. In total, three different dosing levels of brensocatib were tested in each species and strain; each QD dosing level was equivalent to 1.5-times the matching daily BID dose. For BID dosing, the second daily dose was administered 8-h post the morning dose. C57BL/6 mice were dosed either BID or QD for 7 consecutive days at 0/0, 0.5/0.75, 2/3, and 20/30 mg/kg/day (BID/QD). BALB/c mice were dosed for 7 consecutive days at 0/0, 0.2/0.3, 2/3, and 20/30 mg/kg/day (BID/QD). SD rats were dosed for 9 consecutive days at 0/0, 0.2/0.3, 2/3, and 20/30 mg/kg/day (BID/QD). Wistar rats were dosed for 7 consecutive days at 0/0, 0.2/0.3, 2/3, and 20/30 mg/kg/day (BID/QD).
(§2) At the completion of the study, animals were sacrificed 16–24 h post their final dose. The hind limb bones (femurs and tibias) were collected at necropsy for bone marrow analysis of NSP activities by kinetic enzymatic assays ([Basso et al., 2022]). See section Quantification of Bone Marrow NSP Activities for details.
(§3) For the mice, each animal had the femurs and tibias of both hind limbs harvested. For the rat, the femur and tibia from a single hind limb per animal was harvested. Bones were kept on wet ice until processing for bone marrow collection. In brief, bone cutters were used to cut the epiphysis (knobby ends) off the long bones to expose the bone marrow filled cavity. Each bone cavity was then flushed with 5 mL/bone (mouse) or 10 mL/bone (rat) of ice-cold RPMI media through a […] and collected in a 50-mL conical tube. Cells were spun down at 2,500 × g at 4°C for 5 min and the supernatant was aspirated. After which, bone marrow cells were lysed with 1X red blood cell (RBC) lysis buffer (Abcam, ab204733) to eliminate contaminating RBCs and washed with PBS to remove any residual RBC lysis buffer. The resulting white blood cells (WBC) were subsequently lysed with 1% (v/v) Triton X-100 in PBS. Lysates were added to 96-well plates and stored at −80°C until NSP analyses.
(§4) Bone marrow lysates prepared as described above were diluted and plated onto 96-well assay plates to quantify NSP activities as described previously ([Basso et al., 2022]). Briefly, peptide substrates for NE (N-Methoxysuccinyl-Ala-Ala-Pro-Val-7-amido-4-methylcoumarin; Sigma; St. Louis, MO; Excitation/Emission at 350/450 nm), PR3 ((7-Methoxycoumarin-4-yl)acetyl-lysyl-(picolinoyl)-Tyr-Asp-Ala-Lys-Gly-Asp-N-3-(2-4-dinitrophenyl)-2-3-diaminopropyonyl-NH2); GenScript; Piscataway, NJ; Excitation/Emission at 340/430 nm), and CatG (N-Succinyl-Ala-Ala-Pro-Phe p nitroanilide; Sigma; Absorbance at 405 nm) were added at a final assay concentration of 100 μM, 40 μM, and 200 μM, respectively, and either fluorescence or absorbance was quantified using a Synergy microplate reader (BioTek; Winooski, VT). The specific NSP activity in each sample was calculated as the total activity minus the activity in the presence of a specific NSP inhibitor (if used), including elastase inhibitor (Abcam) for NE, sivelestat (Abcam) for PR3, and cathepsin G inhibitor I (Cayman Chemical; Ann Arbor, MI) for CatG. NSP concentrations were interpolated based on their activities relative to the standard curves created using active human NE protein (Sigma), active human PR3 protein (Sigma), and active human CatG protein (Sigma), respectively. Due to unavailability of commercial mouse and/or rat NE, PR3, and CatG proteins, the corresponding human proteins were used instead since their catalytic ability is considered to be conserved across species. A portion of each cell lysate sample was retained for protein quantification using a Pierce™ BCA Protein Assay Kit (Thermo Fisher). The NSP activities were normalized for the cell lysate protein concentrations.
(§5) The Pierce™ BCA Protein Assay Kit was used to measure the total protein of the samples after lysis to allow for subsequent normalization. […]

NE = assay: PD onset study, bone marrow NE activity, C57BL/6 mice; format: in vivo; details: for Percent change from vehicle NE: bone marrow, 5 mg/kg BID oral
Procedure: (§6) A 14-day PD onset study was performed in female C57BL/6 mice dosed BID. Mice were dosed by oral gavage either with vehicle (0 mg/kg) or 5 mg/kg brensocatib (BID; 10 mg/kg/day) for 1, 4, 7, 10, or 14 consecutive days. Plasma was collected from animals during the first 24 h of dosing at 1, 2, 8, 9, 10, and 24 h post the initial dose. Note the 8- and 24-h plasma samples were prior to the afternoon dose and the second day dose (if applicable), respectively. Plasma was used for PK analysis via LC-MS/MS. On prescribed days, animals were sacrificed 16 h post final dose, and the hind bones (femurs and tibias) were collected at necropsy for bone marrow analysis of NSP activities by kinetic enzymatic assays.
as §3, §4
(§7) The Pierce™ BCA Protein Assay Kit was used to measure the total protein of the samples after lysis to allow for subsequent normalization. The manufacturer’s instructions for use were followed when performing this assay on a portion of the sample lysates which were diluted in PBS, the same diluent as used for preparation of the standard. Plates were read on the Biotek Synergy plate reader with Gen5 software.

[2] = set-up: method as in Chalmers et al., 2020; details: Phase 2 trial in NCFBE (WILLOW, NCT03218917), compared to placebo; ref Chalmers et al., 2020; cited from earlier work
PR3 = assay: PD onset study, bone marrow PR3 activity, C57BL/6 mice; format: in vivo; details: for Percent change from vehicle PR3: bone marrow, 5 mg/kg BID oral
Procedure: as §6, §3, §4, §7

CatG [3] = assay: Bone marrow CatG activity after repeated dosing, Sprague Dawley rats; format: in vivo; details: for Reduction of CatG activity vs vehicle / Change From Vehicle Control (%) CatG: 9 days
Procedure: as §1, §2, §3, §4, §5

CatG [4] = assay: Bone marrow CatG activity after repeated dosing, C57BL/6 mice; format: in vivo; details: for Reduction of CatG activity vs vehicle / Change From Vehicle Control (%) CatG: 7 days
Procedure: as §1, §2, §3, §4, §5

[5] = BID highest dose (20 mg/kg/day)
[6] = highest dose level 20/30 (BID/QD) mg/kg/day
[7] = oral BID 2 mg/kg/day, 16 h post final dose
[8] = oral BID 20 mg/kg/day, 16 h post final dose
[9] = oral QD 3 mg/kg/day, 24 h post final dose
[10] = oral QD 30 mg/kg/day, 24 h post final dose
[11] = 5 mg/kg BID, curve fit with free min and max

Cn1c(=O)oc2ccc(-c3ccc(C[C@@H](C#N)NC(=O)[C@@H]4CNCCCO4)cc3)cc21 [brensocatib]
Reduction of CatG activity vs vehicle (CatG [1]; [5]): 92% | Reduction of CatG activity vs vehicle (CatG [1]; QD highest dose (30 mg/kg/day)): 84% | Combined BID and QD percentage reduction, CatG (CatG [1]; [6]): 88% | Change From Vehicle Control (%) CatG (CatG [1]; oral BID 0.2 mg/kg/day, 16 h post final dose): −1% (p = 0.9993) | Change From Vehicle Control (%) CatG (CatG [1]; [7]): −36% (p = 0.0165) | Change From Vehicle Control (%) CatG (CatG [1]; [8]): −92% (p < 0.0001) | Change From Vehicle Control (%) CatG (CatG [1]; oral QD 0.3 mg/kg/day, 24 h post final dose): −2% (p = 0.9983) | Change From Vehicle Control (%) CatG (CatG [1]; [9]): −39% (p = 0.0058) | Change From Vehicle Control (%) CatG (CatG [1]; [10]): −84% (p < 0.0001) | Onset: Maximum reduction (plateau), NE (NE; [11]): 80% | Onset: Time to reach 50% reduction, NE (NE; [11]): 4.3 days | Onset: Time to reach max reduction, NE (NE; [11]): 6.4 days | Percent change from vehicle NE (NE; after 1 day of treatment): −28% (p = 0.0826) | Percent change from vehicle NE (NE; after 4 days of treatment): −59% (p < 0.0001) | Percent change from vehicle NE (NE; after 7 days of treatment): −83% (p < 0.0001) | Percent change from vehicle NE (NE; after 10 days of treatment): −76% (p < 0.0001) | Percent change from vehicle NE (NE; after 14 days of treatment): −82% (p < 0.0001) | time to first exacerbation [2]: prolonged | Onset: Maximum reduction (plateau), PR3 (PR3; [11]): 76% | Onset: Time to reach 50% reduction, PR3 (PR3; [11]): 4.5 days | Onset: Time to reach max reduction, PR3 (PR3; [11]): 8.0 days | Percent change from vehicle PR3 (PR3; after 1 day of treatment): −5% (p = 0.9972) | Percent change from vehicle PR3 (PR3; after 4 days of treatment): −43% (p = 0.0236) | Percent change from vehicle PR3 (PR3; after 7 days of treatment): −85% (p < 0.0001) | Percent change from vehicle PR3 (PR3; after 10 days of treatment): −71% (p < 0.0001) | Percent change from vehicle PR3 (PR3; after 14 days of treatment): −81% (p < 0.0001) | Reduction of CatG activity vs vehicle (CatG [3]; [5]): 37% | Reduction of CatG activity vs vehicle (CatG [3]; QD highest dose (30 mg/kg/day)): 43% | Combined BID and QD percent reduction, CatG (CatG [3]; [6]): 40% | Change From Vehicle Control (%) CatG (CatG [3]; oral BID 0.2 mg/kg/day): +4% (p = 0.9857) | Change From Vehicle Control (%) CatG (CatG [3]; oral BID 2 mg/kg/day): +2% (p = 0.9972) | Change From Vehicle Control (%) CatG (CatG [3]; oral BID 20 mg/kg/day): −37% (p = 0.0420) | Change From Vehicle Control (%) CatG (CatG [3]; oral QD 0.3 mg/kg/day): −9% (p = 0.9235) | Change From Vehicle Control (%) CatG (CatG [3]; oral QD 3 mg/kg/day): −13% (p = 0.8203) | Change From Vehicle Control (%) CatG (CatG [3]; oral QD 30 mg/kg/day): −43% (p = 0.0348) | Reduction of CatG activity vs vehicle (CatG [4]; [5]): 94% | Reduction of CatG activity vs vehicle (CatG [4]; QD highest dose (30 mg/kg/day)): 87% | Combined BID and QD percent reduction, CatG (CatG [4]; [6]): 90% | Change From Vehicle Control (%) CatG (CatG [4]; oral BID 0.5 mg/kg/day, 16 h post final dose): −16% (p = 0.1964) | Change From Vehicle Control (%) CatG (CatG [4]; [7]): −71% (p < 0.0001) | Change From Vehicle Control (%) CatG (CatG [4]; [8]): −94% (p < 0.0001) | Change From Vehicle Control (%) CatG (CatG [4]; oral QD 0.75 mg/kg/day, 24 h post final dose): −1% (p = 0.9999) | Change From Vehicle Control (%) CatG (CatG [4]; [9]): −64% (p < 0.0001) | Change From Vehicle Control (%) CatG (CatG [4]; [10]): −87% (p < 0.0001)
